B1: six-bladed β-propeller domain of DrSOD (DrSOD^β-pro) (domain or fragment, Deinococcus radiodurans, UniProt Q9RYV4 185-462, looked up)
chain: LSVRDYALPGPVDHPEGVAYDAKKGLIYTGSAQNGTIYAINAQSGAVTKFQEGGAYGRQVALGLKVDPQGRLWIAGGAQGTVSILTPDGMTLAVLETPKSPRPYINDLVLAPDGNFYVTDSSRPVIFRVDKALKLTAWLDLAGTPIKYGPGVNLNGIAATPDGKYLLAVQLNTGELWRIDLKTKAVKKVMDGLVNGDGLLLDGRTLYVARNKDQVVAKVSLSADYGSGQLVAQEPLNGLRFPATLAKVGNDLVVTQAQLDRIGGTPETPFKLTRFAKF
notes: β-propeller (SGL) domain of DrSOD (DRA0202), Deinococcus radiodurans, UniProt Q9RYV4, residues Leu185-Phe462; Eluted as a mixture of monomer and dimer; source: E. coli BL21(DE3), purified (cOmplete His-Tag column, HRV3C, gel filtration); not shown: His6, N-terminal, cleaved

What was measured:
DrSOD^β-pro = target: T1, DrSOD^β-pro (Deinococcus radiodurans, UniProt Q9RYV4); experiment: pH-indicator (p-nitrophenol, […] nm) lactonase assay; assay type: biochemical; conditions: pH 7.0, 20 mM CaCl2; 2 mM substrate
T1 construct: gene DR_A0202; C-terminal beta-propeller domain (Leu185-Phe462), N-terminal 6xHis removed with HRV3C, E. coli BL21(DE3), monomer and dimer

[1] = target: the molecule itself; experiment: SEC-MALS; 25 μM protein loaded on a gel filtration column (LW-803, SHODEX); MN buffer (50 mM MOPS, 100 mM NaCl, pH 7.0) for the holo forms, MN buffer with 5 mM EDTA for the metal-free apo state; monomer against dimer

Molecule | pH-indicator (p-nitrophenol, 405 nm) lactonase assay (DrSOD^β-pro) | stoichiometry N [1]
O=C1Cc2ccccc2O1 [2-coumaranone] | lactonase activity of DrSOD toward 2-coumaranone was attributed to DrSOD^β-pro but not DrSOD^SOD | –
B1 | – | 2
